Like-named read-outs stand apart in the source and are kept apart here.
Experiments:
[1] = test system: RG2; experiment: Cytotoxicity (IC50) on RG2; format: cell-based, rat; conditions: Rattus norvegicus, RG2
Experimental: (§1) Human tumor cell lines (MCF-7, CL1-5, HT-29, Caco-2), human umbilical vascular endothelial cells (HUVEC), and human dermal fibroblasts (HDF) were tested for sensitivity on Angelicae sinensis extracts, ligustilide, n-butylidenephthalide and its derivatives in vitro. The DBTRG-05MG, BCM, HL-60 and J5 cells were grown in RPMI-1640 medium containing 10% fetal calf serum and 100 ng/ml penicillin and […] streptomycin at 37° C. in a humidified atmosphere with 5% CO2. The G5T/VGH, RG2, Ni 8, SVEC and Balb/3T3 cells were cultured in DMEM with 10% fetal calf serum and 100 ng/ml penicillin and […] streptomycin at 37° C. in 5% CO2. Mycoplasma infection of the culture cells was excluded by PCR screening methods before each experiment.
(§2) The effects on cell viability after the treatments with different concentrations of the Angelicae sinensis extracts or the active components purified therefrom were evaluated by modified MTT assay in triplicate. Briefly, the cells (5×10^3) were incubated into 96-well plates containing 100 μl of a growth medium. The cells were permitted to adhere for 24 hours, then treated with 100 μl of the herbal extracts or the active components dissolved in the medium. The control contained DMSO of <0.02% (v/v). After 24, 48 and 72 h incubation, the drug-containing medium was replaced by 50 μl of fresh medium, and cells in each well were incubated in 50 μl of 400 μg/ml MTT for 6-8 h. The medium and MTT were removed later and 100 μl of DMSO was added to each well and to the control, to dissolve the soluble components. Absorbance at 550 nm of the solutions was measured with MRX Microtiter Plate Luminometer (DYNEX, USA). The absorbance of untreated cells was considered as 100%. To evaluate the effects of the extracts or the active components on cell growth rate of GBM cells, 5×10^3 exponentially growing cells were treated with different concentrations for 24, 48, or 72 h. The cytotoxicity of each test substance was determined as an IC50 value, which represents the drug concentration required to cause 50% inhibition. All experiments in this study were performed in triplicate.

[2] = test system: MCF-7; experiment: Cytotoxicity (IC50) on MCF-7; format: cell-based; conditions: Homo sapiens, MCF7
Experimental: as §1
(§3) The effects on cell viability after the treatments with different concentrations of the Angelicae sinensis extracts or the active components purified therefrom were evaluated by modified MTT assay in triplicate. Briefly, the cells (5×10^3) were incubated into 96-well plates containing 100 μl of a growth medium. The cells were permitted to adhere for 24 hours, then treated with 100 μl of the herbal extracts or the active components dissolved in the medium. The control contained DMSO of <0.02% (v/v). […] Absorbance at 550 nm of the solutions was measured with MRX Microtiter Plate Luminometer (DYNEX, USA). The absorbance of untreated cells was considered as 100%. […]

[3] = Cytotoxicity (IC50) on HUVEC; format: cell-based, human; conditions: human, human umbilical vascular endothelial cells (HUVEC), normal cells, read-out: Cytotoxicity, IC50 HUVEC
Source text: Human umbilical vascular endothelial cells (HUVECs) were purchased from Cascade Biologics, Inc. (USA). HUVECs were maintained in Medium 200 (Cascade Biologics, Inc. USA) supplemented with 10% fetal bovine serum (FBS; Gibco BRL) and low serum growth supplement (LSGS; Cascade Biologics, Inc. USA). Human dermal fibroblasts (HDFs) were purchased from Cascade Biologics, Inc. (USA). HDFs were maintained in Medium 106 (Cascade Biologics, Inc. USA) supplemented with 10% FBS and low serum growth supplement (LSGS; Cascade Biologics, Inc. USA). The human colon adenocarcinoma cell lines HT-29 were purchased from the ATCC (Manassas, Va. USA). HT-29 were maintained in Dubecco's Modified Eagle Medium (DMEM; Gibco) supplemented with 10% FBS and 100 ng/ml penicillin and […] streptomycin (Life Technologies, Inc., Grand Island, N.Y., USA). For the proliferation assay of cell in log growth (G1), the cells were harvested at 60-80% of confluence. 100 μl of cell suspensions were dispensed onto a Falcon 96-well plates The densities were 6×10^3 cells/well in Medium 200 (for HUVECs), and 9×10^3 cells/well in Medium 106 (for HDFs), and 5×10^3 cells/well in DMEM (for HT-29) supplemented with 10% FBS. The cells were pre-incubated for 24 hours in an incubator (Humidified atmosphere, e.g., at 37° C., 5% CO2). 10 μl of toxicant of various concentrations were added into the culture medium of the plate. The cell cultures were incubated for 48 hours. 10 μl of the Cell Counting Kit-8 (CCK-8; DOJINDO) solution were added and the cell cultures incubated for 1˜4 hours in the incubator. The absorbance was measured at 450 nm, using a microplate reader with a reference wavelength at 600 nm or over.
as §1, §2

[4] = test system: CL1-5; experiment: Cytotoxicity (IC50) on CL1-5; format: cell-based; conditions: Homo sapiens
Experimental: as §1, §3

[5] = test system: J5; experiment: Cytotoxicity (IC50) on J5; format: cell-based; conditions: Homo sapiens
Experimental: as §1, §3

Compound `CCCC=C1OC(=O)c2ccccc21` [BP, n-Butylidenephthalide] has an IC50 ([1]; Table 1, value in parentheses) of 7.45 µM, an IC50 ([1]; Table 2) of 1.4 µg/mL and an IC50 ([1]; Table 2, value in parentheses) of 7.45 µM. For the same compound, the IC50 ([1]; cancer cells, Table 1) was 1.4 µg/mL, the IC50 ([2]; Table 1, value in parentheses) was over 106 µM and the IC50 ([2]; cancer cells, Table 1) was over 20 µg/mL. The IC50 ([3]; Table 1, value in parentheses) was over 532 µM, the IC50 ([3]; Table 1) was over 100 µg/mL and the IC50 ([4]; Table 2) was over 100 µg/mL. The IC50 ([4]; Table 2, value in parentheses) was over 532 µM, the IC50 ([5]; Table 2) was 15 to 20 µg/mL and the IC50 ([5]; Table 2, value in parentheses) was 79.8 to 106 µM.
